Source: patent publication US20240067702A1, “LACTAM-MODIFIED P[…]” (DONGBAO PURPLE STAR (HANGZHOU) BIOPHARMACEUTICAL CO., LTD., priority 2020, published 2024)
*1 amine or outer side, *2 acyl side, *3 side chain or, on linkers, in order; H or OH if unused. Where a SMILES comes first, the peptide text is derived from it. Bridges are numbered along the chain shown (N, C = ends). Side-chain parts run from the residue outwards. [ ]: non-standard residue; d: D form. The star is where a group is joined. C20 diacid = O=C(O)CCCCCCCCCCCCCCCCCCC(=O)*; γGlu = O=C(O)[C@H](CCC(=O)[*:2])N[*:1]; AEEA = NCCOCCOCC(=O)O; Aib = CC(C)(N)C(=O)O

Experiments:
[1] = Plasma stability (PLS) test, mouse plasma; type: in vitro ADME; details: pH 7.4, 37° C., up to 120 min, read-out: PLS (H/M) T1/2
Protocol: To study the stability of test compounds in the plasma of normal mice.
1. Before the experiment, the coagulated frozen plasma was thawed in a water bath at 37° C. Plasma was centrifuged at 4000 rpm for 5 min. If there was blood clot, the blood clot was removed and the pH value was adjusted to 7.4±0.1.
2. Preparation of the test compound solution: 100 μM of the solution was prepared by dilution with DMSO.
3. 98 μL of blank control plasma was added to 2 μL of the test compound solution (100 μM), so that the final concentration of the mixed solution of the two reached 2 μM, and the mixed solution was placed in a 37° C. water bath for incubation.
4. At each time point (0, 10, 30, 60, and 120 min), 1(X) μL of H3PO4 solution and 800 μL of stop solution (200 ng/mL of tolbutamide and 200 ng/mL of labetalol in 100% methanol solution) were added to precipitate protein, and mixed thoroughly.
5. The samples were centrifuged at 4000 rpm for 20 min, and 1(X) μL of supernatant was taken from each well for LC-MS/MS analysis.

[2] = Pharmacokinetic evaluation in cynomolgus monkeys; type: in vivo; details: cynomolgus monkey, plasma, 0.02 mg/kg, single SC 0.02 mpk
Protocol: To test the pharmacokinetics of compounds in cynomolgus monkeys in vivo
The pharmacokinetic characteristics of the compounds in mammals after intravenous injection and subcutaneous injection were tested according to the standard protocol. In the experiment, the candidate compounds were formulated into clear solutions, and a single subcutaneous injection (SC, 0.02 mpk) was given to the cynomolgus monkeys. The vehicle for subcutaneous injection was citrate buffer (20 mM, pH=7). Whole blood was collected and prepared to obtain plasma. Drug concentration was analyzed by LC-MS/MS method, and pharmacokinetic parameters were calculated by Phoenix WinNonlin software.

[3] = biological target: T1, GIPR (Homo sapiens, UniProt P48546); test: GIPR agonist activity test in vitro (cAMP assay); type: cell-based; details: GIPR Agonist Activity EC50 (−) 1% HSA, CHO host cell; without 1% HSA
T1 construct: host or cells: CHO
T1 sequence (P48546 22-466): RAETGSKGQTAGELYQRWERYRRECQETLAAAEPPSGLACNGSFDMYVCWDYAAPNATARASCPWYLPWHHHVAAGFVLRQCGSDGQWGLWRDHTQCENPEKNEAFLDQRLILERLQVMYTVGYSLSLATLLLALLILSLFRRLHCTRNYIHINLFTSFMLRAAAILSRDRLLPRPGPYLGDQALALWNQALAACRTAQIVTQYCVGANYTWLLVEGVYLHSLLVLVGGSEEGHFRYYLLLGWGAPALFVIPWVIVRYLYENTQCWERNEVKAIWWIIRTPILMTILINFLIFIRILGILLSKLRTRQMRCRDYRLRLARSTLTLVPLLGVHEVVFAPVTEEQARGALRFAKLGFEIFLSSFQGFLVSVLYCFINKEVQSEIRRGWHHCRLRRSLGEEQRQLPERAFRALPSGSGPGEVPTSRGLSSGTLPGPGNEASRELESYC
Protocol: The cell strains were constructed by Shanghai WuXi AppTec.
The test compound was serially diluted 4-fold with 10 points. The initial concentration was 30 μM, and the dilution was completed with Bravo.
1) 100 nL of the compound was transferred to OptiPlate-384 plate using Echo.
7) The GLP-1R/GIPR cell concentration was diluted to 2.0*10^5/mL with the experimental buffer.
8) […] of the diluted cell suspension was transferred into the OptiPlate-384 plate.
9) The diluted cell suspension was incubated at room temperature for 30 minutes.
2) 10 μL of cAMP detection reagent was added.
3) The OptiPlate-384 plate was covered with TopSeal-A film and incubated at room temperature for 60 minutes.
TopSeal-A was removed and read in EnVision.

[4] = Plasma stability (PLS) test, human plasma; type: in vitro ADME; details: pH 7.4, 37° C., up to 120 min, read-out: PLS (H/M) T1/2, H
[5] = Plasma protein binding (PPB) test, mouse; type: in vitro ADME; details: pH 7.4, ultracentrifugation
Protocol: To study the binding of the test compounds to human/mouse plasma albumin.
1. Matrix preparation: On the day of the experiment, the plasma was thawed in cold water and centrifuged at 3220 rpm for 5 min to remove all blood clots. The pH of the obtained plasma was measured and adjusted to 7.4±0.1 using 1% phosphoric acid or 1N sodium hydroxide as needed.
2. Dilution steps of the test compounds: The test compounds were dissolved in dimethyl sulfoxide (DMSO) to prepare stock solutions at concentrations of 10 mM and 2 mM, respectively. A 40 μM working solution was prepared by diluting 2 μL of the stock solution (2 mM) with 98 μL of DMSO. A 400 μM working solution of the control compound was prepared by diluting 10 μL of the stock solution with 240 μL of DMSO. The working solution of the compound (5 μL) was mixed with the blank matrix (995 μL) at a ratio of 1:200 to prepare the loading matrix.
3.1 An equal amount of 30 μL of the loading matrix (n=2) was transferred to the sample collection plate to prepare samples of time 0 (TO) for residue determination. The samples were immediately matched to the corresponding blank buffer in a final volume of 60 μL with a 1:1 volume ratio of plasma to buffer in each well. Then, 60 μL of 4% H3PO4 in H2O and 480 μL of stop solution containing an internal standard were then added to the TO samples of the test compounds. They were then stored at 2-8° C. with other samples pending for further processing.
3.2 The remaining plasma samples were pre-incubated in a carbon dioxide incubator at 37±1° C. for 30 min. The prepared protein-free samples (F samples) and loading matrix samples (230 μL) were transferred to polycarbonate tubes (n=2) and ultracentrifuged at 37° C. and 155000×g (35000 rpm) for 4 hours.
3.3 To prepare T samples (test samples), an additional matrix-containing sample was transferred to a separate 96-well plate (sample incubation plate) and incubated at 37° C. for 4 hours.
3.4 After centrifugation, 30 μL of protein-free sample and 30 μL of T sample were transferred from the second layer of supernatant (below the upper layer) to a new sample collection plate. Each sample was mixed with the corresponding blank buffer or matrix in a final volume of 60 μL with a matrix:buffer volume ratio of 1:1. 60 μL of 4% H3PO4 aqueous solution and 480 μL of stop solution (containing internal standard) were added to all samples. The mixture was centrifuged at 4000 rpm for 20 min, and 100 μL of the supernatant of each sample was taken for LC-MS/MS analysis.

Compound: CC[C@H](C)[C@H](NC(=O)[C@H](CC(C)C)NC(=O)[C@H](Cc1c[nH]c2ccccc12)NC(=O)[C@@H]1CCC(=O)NCCCC[C@H](NC(=O)[C@H](CCC(N)=O)NC(=O)[C@H](C)NC(=O)[C@H](CCCCNC(=O)COCCOCCNC(=O)COCCOCCNC(=O)CC[C@H](NC(=O)CCCCCCCCCCCCCCCCCCC(=O)O)C(=O)O)NC(=O)[C@H](CCCCN)NC(=O)[C@H](CC(=O)O)NC(=O)[C@H](CC(C)C)NC(=O)C(C)(C)NC(=O)[C@@H](NC(=O)[C@H](CO)NC(=O)[C@H](Cc2ccc(O)cc2)NC(=O)[C@H](CC(=O)O)NC(=O)[C@H](CO)NC(=O)[C@@H](NC(=O)[C@H](Cc2ccccc2)NC(=O)[C@@H](NC(=O)CNC(=O)[C@H](CCC(=O)O)NC(=O)C(C)(C)NC(=O)[C@@H](N)Cc2ccc(O)cc2)[C@@H](C)O)[C@@H](C)O)[C@@H](C)CC)C(=O)N[C@@H](C)C(=O)N[C@@H](Cc2ccccc2)C(=O)N[C@@H]([C@@H](C)CC)C(=O)N1)C(=O)N[C@@H](C)C(=O)NCC(=O)NCC(=O)N1CCC[C@H]1C(=O)N[C@@H](CO)C(=O)N[C@@H](CO)C(=O)NCC(=O)N[C@@H](C)C(=O)N1CCC[C@H]1C(=O)N1CCC[C@H]1C(=O)N1CCC[C@H]1C(=O)N[C@@H](CO)C(N)=O [WX-006] (H-Y[Aib]EGTFTSDYSI[Aib]LDKK([AEEA-AEEA-γGlu-C20 diacid])AQKAFIEWLIAGGPSSGAPPPS-NH2; lactam 20-24)
- half-life at 2 μM [1]: > 4.82 h
- Cmax [2]: 30 nM
- Tmax [2]: 29 h
- half-life ([2]; read-out: Half-life T1/2 (converted)): 72.4 h
- AUC(0-t) ([2]; read-out: SC Concentration Integral AUC0-240 h): 3.64 µM·h
- EC50 [3]: 0.45 nM
- half-life at 2 μM [4]: > 4.82 h
- fraction unbound at 4 h, 0.2 μM [5]: 0.0035
